Source: ChEMBL document CHEMBL4033674, “Bivalent O-glycoside mimetics with S/disulfide/Se substitutions and aromatic core: Synthesis, molecular modeling and inhibitory activity on biomedically relevant lectins in assays of increasing physiological relevance” (Bioorg Med Chem, 2017)
Activity calls are given as the source filed them. No cut-off for these calls is given here.

Legend:
[1] = molecular target: T1, Galectin-8 (Homo sapiens) (UniProt O00214); experiment: Inhibition of biotinylated tandem repeat type galectin-8 in human Capan-1 cells after 30 mins by FACS analysis relative to control; type: cell-based
T1 sequence (whole entry): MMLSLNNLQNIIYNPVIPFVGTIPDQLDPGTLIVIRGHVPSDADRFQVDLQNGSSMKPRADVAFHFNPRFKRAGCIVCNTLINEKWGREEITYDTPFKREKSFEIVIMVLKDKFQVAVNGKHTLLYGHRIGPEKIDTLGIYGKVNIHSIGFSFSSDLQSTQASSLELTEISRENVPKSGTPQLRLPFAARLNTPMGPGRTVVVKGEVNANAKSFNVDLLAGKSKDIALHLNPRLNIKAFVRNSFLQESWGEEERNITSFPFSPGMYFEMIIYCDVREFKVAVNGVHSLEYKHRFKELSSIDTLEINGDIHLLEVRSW

[2] = molecular target: Galectin-1 (Homo sapiens) (UniProt P09382); experiment: Inhibition of biotinylated proto type galectin-1 in human Capan-1 cells after 30 mins by FACS analysis relative to control; type: cell-based
Chain of Galectin-1 (Homo sapiens) (P09382 whole entry): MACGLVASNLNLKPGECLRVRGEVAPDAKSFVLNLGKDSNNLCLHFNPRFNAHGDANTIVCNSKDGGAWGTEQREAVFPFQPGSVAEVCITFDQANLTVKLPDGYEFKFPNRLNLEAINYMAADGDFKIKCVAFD

[3] = molecular target: Galectin-3 (Homo sapiens) (UniProt P17931); experiment: Inhibition of biotinylated chimera type galectin-3 in human Capan-1 cells after 30 mins by FACS analysis relative to control; type: cell-based
Chain of Galectin-3 (Homo sapiens) (P17931 whole entry): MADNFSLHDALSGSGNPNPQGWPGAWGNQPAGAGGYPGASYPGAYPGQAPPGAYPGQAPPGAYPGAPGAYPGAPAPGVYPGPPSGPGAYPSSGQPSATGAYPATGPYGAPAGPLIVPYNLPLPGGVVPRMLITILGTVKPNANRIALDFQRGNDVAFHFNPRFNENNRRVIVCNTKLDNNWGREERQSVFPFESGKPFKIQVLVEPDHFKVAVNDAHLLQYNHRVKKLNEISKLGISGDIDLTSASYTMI

Galectin-3 = Galectin-3 (Mus musculus, UniProt P16110); experiment: Inhibition of galectin-3 in C57BL/6 mouse jejunum using SK-5100 as substrate incubated for 30 mins by VAA staining based microscopic analysis
Chain of Galectin-3 (P16110 whole entry): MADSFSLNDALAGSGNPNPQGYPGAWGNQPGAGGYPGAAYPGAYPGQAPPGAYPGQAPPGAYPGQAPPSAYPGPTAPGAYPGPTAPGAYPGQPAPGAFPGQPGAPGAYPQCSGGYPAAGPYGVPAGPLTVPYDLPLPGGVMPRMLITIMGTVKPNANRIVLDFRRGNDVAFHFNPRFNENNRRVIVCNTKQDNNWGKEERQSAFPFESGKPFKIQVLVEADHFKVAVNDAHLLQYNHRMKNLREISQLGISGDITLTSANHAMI

[4] = molecular target: T2, Galectin-8 (Mus musculus) (UniProt Q9JL15); experiment: Inhibition of galectin-8 in C57BL/6 mouse jejunum using SK-5100 as substrate incubated for 30 mins by VAA staining based microscopic analysis relative to free lactose
T2 sequence (whole entry): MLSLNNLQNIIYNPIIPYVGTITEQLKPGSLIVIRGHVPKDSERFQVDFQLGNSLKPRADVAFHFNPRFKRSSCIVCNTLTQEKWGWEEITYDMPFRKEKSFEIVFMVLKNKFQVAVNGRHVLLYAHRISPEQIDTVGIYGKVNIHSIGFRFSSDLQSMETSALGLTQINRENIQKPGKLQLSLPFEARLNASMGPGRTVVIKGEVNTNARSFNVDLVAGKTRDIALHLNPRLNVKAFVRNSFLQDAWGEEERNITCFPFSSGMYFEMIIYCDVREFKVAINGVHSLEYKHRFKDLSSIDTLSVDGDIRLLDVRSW

[5] = Inhibition of lectin in C57BL/6 mouse kidney using SK-5100 as substrate incubated for 30 mins by VAA staining based microscopic analysis
[6] = molecular target: Galectin-1 (Mus musculus) (UniProt P16045); experiment: Inhibition of galectin-1 in C57BL/6 mouse jejunum using SK-5100 as substrate incubated for 30 mins by VAA staining based microscopic analysis relative to free lactose
Chain of Galectin-1 (Mus musculus) (P16045 whole entry): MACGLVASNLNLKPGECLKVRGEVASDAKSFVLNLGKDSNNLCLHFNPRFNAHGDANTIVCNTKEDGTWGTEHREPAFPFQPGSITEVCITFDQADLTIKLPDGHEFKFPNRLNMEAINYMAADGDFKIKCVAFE

Structure (SMILES) | fold change (FC) [1] | fold change (FC) [2] | fold change (FC) [3] | other results
OC[C@H]1O[C@@H]([Se]Cc2ccc(C[Se][C@@H]3O[C@H](CO)[C@H](O)[C@H](O)[C@H]3O)c3ccccc23)[C@H](O)[C@@H](O)[C@H]1O | 2.5 to 10 | 2.5 to 10 | 2.5 to 10 | 
OC[C@H]1O[C@@H](O[C@H]2[C@H](O)[C@@H](O)[C@H](SCc3ccc(CS[C@@H]4O[C@H](CO)[C@@H](O[C@@H]5O[C@H](CO)[C@H](O)[C@H](O)[C@H]5O)[C@H](O)[C@H]4O)c4ccccc34)O[C@@H]2CO)[C@H](O)[C@@H](O)[C@H]1O |  |  |  | IC50 (Galectin-3): 50 µM; inhibition [1]: inactive; inhibition [2]: inactive; fold change (FC) [4]: 50; inhibition [3]: inactive
OC[C@H]1O[C@@H](SCc2ccc(CS[C@@H]3O[C@H](CO)[C@H](O)[C@H](O)[C@H]3O)c3ccccc23)[C@H](O)[C@@H](O)[C@H]1O | 2.5 to 10 | 2.5 to 10 | 2.5 to 10 | 
OC[C@H]1O[C@@H]([Se]Cc2cccc(C[Se][C@@H]3O[C@H](CO)[C@H](O)[C@H](O)[C@H]3O)c2)[C@H](O)[C@@H](O)[C@H]1O | 2.5 to 10 | 2.5 to 10 | 2.5 to 10 | 
O=C[C@H](O)[C@@H](O)[C@@H](O)[C@H](O)CO [GALACTOSE] |  |  |  | IC50 [5]: 5000 µM
OC[C@H]1O[C@@H](SSCc2ccc(CSS[C@@H]3O[C@H](CO)[C@H](O)[C@H](O)[C@H]3O)c3ccccc23)[C@H](O)[C@@H](O)[C@H]1O | 2.5 to 10 | 2.5 to 10 | 2.5 to 10 | IC50 [5]: 500 to 1000 µM
OC[C@H]1O[C@@H](SSCc2cccc3c(CSS[C@@H]4O[C@H](CO)[C@H](O)[C@H](O)[C@H]4O)cccc23)[C@H](O)[C@@H](O)[C@H]1O | 2.5 to 10 | 2.5 to 10 | 2.5 to 10 | 
OC[C@H]1O[C@@H]([Se]Cc2cccc3c(C[Se][C@@H]4O[C@H](CO)[C@H](O)[C@H](O)[C@H]4O)cccc23)[C@H](O)[C@@H](O)[C@H]1O | 2.5 to 10 | 2.5 to 10 | 2.5 to 10 | 
OC[C@H]1O[C@@H](O[C@H]2[C@H](O)[C@@H](O)[C@H](SSCc3ccc(CSS[C@@H]4O[C@H](CO)[C@@H](O[C@@H]5O[C@H](CO)[C@H](O)[C@H](O)[C@H]5O)[C@H](O)[C@H]4O)c4ccccc34)O[C@@H]2CO)[C@H](O)[C@@H](O)[C@H]1O |  |  |  | fold change (FC) [6]: 6; IC50 (Galectin-3): 25 µM; inhibition [1]: Active; inhibition [2]: Active; fold change (FC) [4]: 100; inhibition [3]: Active
OC[C@H]1O[C@@H]([Se]Cc2ccc(C[Se][C@@H]3O[C@H](CO)[C@H](O)[C@H](O)[C@H]3O)cc2)[C@H](O)[C@@H](O)[C@H]1O | 2.5 to 10 | 2.5 to 10 | 2.5 to 10 | 
OC[C@H]1O[C@@H]([Se]Cc2ccc3cc(C[Se][C@@H]4O[C@H](CO)[C@H](O)[C@H](O)[C@H]4O)ccc3c2)[C@H](O)[C@@H](O)[C@H]1O | 2.5 to 10 | 2.5 to 10 | 2.5 to 10 | IC50 [5]: 500 to 1000 µM
